Tests used:
[1] = system: IFN-α mRNA in LLC and H1650 cells; assay: IFN-α qRT-PCR; format: cell-based, mouse (LLC), human (H1650)
Description: ROS is the main regulator of WFA-induced PD-L1 upregulation. […] All cells were treated with 0.6 μM WFA except A549, 4t1 and MDA-MB-231 cells which were treated with 4 μM, 1 μM, 2 μM WFA, respectively. […] PCR experiments were repeated twice, and one representative experiment is shown as mean±SEM of 3 technical replicates. Flow cytometry experiments were performed twice and the mean±SEM of two representative experiments is shown. Treatments were compared to the control using one-way ANOVA and Fisher LSD post hoc test. * p<0.05, ** p<0.01, *** p<0.001, **** p<0.0001.
Total cellular RNA was isolated from collected cell pellets using TRIzol reagent (Invitrogen, Waltham, MA, USA) and then quantified using the 2000 Nanodrop spectrophotometer (Thermo Fisher Scientific, Waltham, MA, USA). cDNA synthesis was performed using the Verso cDNA synthesis kit (Thermo Fisher Scientific, Waltham, MA, USA). qPCR was then performed using Forget-Me-Not EvaGreen qPCR Master Mix (Biotium, Fremont, CA, USA) in a Bio-Rad CFX384 thermocycler according to the manufacturer's instructions. The CFX Maestro software version 2.3 (Bio-Rad, Hercules, CA, USA) was used to calculate the ΔCt and ΔΔCt values and gene expression was normalized to housekeeping genes glyceraldehyde 3-phosphate dehydrogenase (GAPDH) or β-actin. […]

[2] = system: tumor-immune infiltration and ecto-CRT in LLC tumors; assay: LLC syngeneic mouse model, flow cytometry of collected tumors; format: in vivo, C57BL/6 mice
Description: FIGS. 5A-5G depict that WFA sensitizes flank tumors to α-PD-L1 therapy and targets immunosuppressive MDSCs and T-regs. (FIG. 5A) Establishment of LLC flank tumors and treatment schedule. (FIG. 5B) Tumor volume measurement in mm^3 and tumor weight at the endpoint of the experiment. (FIG. 5C) Change in the levels of ecto-CRT in tumors was measured using flow cytometry. (FIGS. 5D-5G) Flow cytometry was used to determine the change in immune cell infiltration in collected tumors. […] Moreover, WFA reduced the immunosuppressive T regs (FIG. 5F) and CD11b+Gr1+MDSC (FIG. 5G) populations. The means of two independent experiments ±SEM are shown, and the statistical significance was calculated using one-way ANOVA and a Fisher LSD post hoc test where * and #represent p<0.05 and ** and ##represent p<0.01. * Symbols refer to the difference between the vehicle control and WFA, while #refers to comparisons between the vehicle control and WFA+α-PD-L1 combination.
FIGS. 12A-12D depicts the gating strategy used to determine tumor immune infiltration in LLC tumors and spleens. […] Out of the CD11b population, we gated the monocytic CD11b+Ly6C+ and CD11b+Ly6G+granulocytic MDSCs. (FIG. 12B) For the T-cell panel, the total CD-3 population was gated out of the live single cells. Consequently, CD4, CD25+CD4+Tregs and CD8 population were gated out of CD-3 cells based on the FMO controls. (FIGS. 12C-12D) Mice body weights were measured at the endpoint of the experiment and represented as mean±SEM. The means were compared to the vehicle control using Fisher LSD post-hoc test. * p<0.05.
In vitro WFA-treated or control cells were collected using Accutase cell detachment solution and stained with FACS-diluted (PBS, 10% FBS, 2 mMEDTA) pre-titrated fluorophore conjugated or primary unconjugated antibody solutions (Table 1) for 30 min on ice in the dark. In case of fluorophore-conjugated antibodies, samples are washed and immediately acquired after adding DAPI viability dye, while samples stained with unconjugated antibodies are incubated with the proper secondary fluorophore-conjugated antibody for 30 min before washing and acquisition. For in vivo experiments, the processed tumor or spleen single cell suspensions were used for surface staining with the pre-titrated antibodies (Table 1) for 30 min on ice in the dark. To exclude the dead cells from the analysis, a fixable live/dead Zombie Aqua viability kit (Biolegend, San Diego, CA, USA) was used according to the manufacturer's protocol. Samples were then fixed using 2% PFA for 15 min then washed and stored at 4° C. before acquisition. Samples were acquired using a Becton Dickenson Biosciences (BD, Franklin Lakes, NJ, USA) FACS Canto II or LSR II system at the University of South Florida COM Fred Wright Jr Flow Cytometry Core.
C57BL/6 mice were purchased from the Jackson Laboratory (Bar Harbor, ME, USA) and acclimated for a week. To establish the LLC syngeneic tumors, C57BL/6 mice were injected with a half million cells on the right flank and monitored until tumors were first palpable (2-3 mm diameter). […] Treatments were administered every other day with a total of five treatments and mice body weights and tumor volumes were monitored using a caliper (Fisher Scientific, Waltham, MA, USA, 15-077-957). Tumor volumes (mm^3) were calculated using the equation ([…]), where the length is defined as the bigger tumor dimension. […]

CC1=C(CO)C(=O)O[C@@H]([C@@H](C)[C@H]2CC[C@H]3[C@@H]4C[C@H]5O[C@]56[C@@H](O)C=CC(=O)[C@]6(C)[C@H]4CC[C@]23C)C1 [WFA, Withaferin A]
IFN-α mRNA [1]: increased | CD11b+Gr1+ MDSCs in the tumor [2]: reducing | CD25+CD4+ T-regs in the tumor [2]: reducing | levels of ecto-CRT in vivo ([2]; vs control mice): increased | CD8 T-cell infiltration ([2]; vs vehicle control): increasing | T-cell activation markers CD69 and 41BB ([2]; vs vehicle control): not significant
